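The compound was tested at five concentrations on cells cultured in 96-well plates, with a 48-hour exposure period. The concentration for 50% growth inhibition is given as GI50. The concentration for full growth arrest is given as TGI.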
Key:
Assay in all cases: NCI-60 cell line screen, 48 h
[1] = system: SK-MEL-5 melanoma
[2] = system: UACC-257 melanoma
[3] = system: A549 NSCLC
[4] = system: SR leukemia
[5] = system: SF-295 CNS
[6] = system: NCI-H23 lung
[7] = system: ACHN renal
[8] = system: MDA-MB-435
[9] = system: UACC-62 melanoma
[10] = system: SF-539 CNS
[11] = system: SNB-19 CNS
[12] = system: OVCAR-8 ovarian
[13] = system: TK-10 renal
[14] = system: LOX IMVI melanoma
[15] = system: SN12C renal
[16] = system: MALME-3M melanoma
[17] = system: HOP-62 NSCLC
[18] = system: HS 578T breast
[19] = system: OVCAR-4 ovarian
[20] = system: MOLT-4 leukemia
[21] = system: OVCAR-3 ovarian
[22] = system: HCT-15 colon
[23] = system: DU-145 prostate
[24] = system: CCRF-CEM leukemia
[25] = system: SK-OV-3 ovarian
[26] = system: A498 renal
[27] = system: NCI/ADR-RES ovarian
[28] = system: SNB-75 CNS
[29] = system: COLO 205 colon
[30] = system: NCI-H460 lung
[31] = system: SK-MEL-2 melanoma
[32] = system: KM12 colon
[33] = system: HCC-2998 colon
[34] = system: MDA-MB-231 breast
[35] = system: K-562 leukemia
[36] = system: NCI-H522 lung
[37] = system: RXF 393 renal
[38] = system: IGROV1 ovarian
[39] = system: SK-MEL-28 melanoma
[40] = system: HL-60(TB) leukemia
[41] = system: HOP-92 NSCLC
[42] = system: SW-620 colon
[43] = system: T-47D breast
[44] = system: SF-268 CNS
[45] = system: EKVX NSCLC
[46] = system: U251 CNS
[47] = system: BT-549 breast
[48] = system: HT29 colon
[49] = system: PC-3 prostate
[50] = system: RPMI-8226 leukemia
[51] = system: CAKI-1 renal
[52] = system: UO-31 renal
[53] = system: HCT-116 colon
[54] = system: MCF7 breast
[55] = system: OVCAR-5 ovarian
[56] = system: NCI-H226 lung
[57] = system: 786-0 renal
[58] = system: M14 melanoma

In the case of `CCc1cc(C(N)=O)ccc1-n1nc(C(C)C)c2c(-n3cnc(-c4cnn(C)c4)c3)ccnc21`, the GI50 [1] is reported as 3.98 µM, the TGI [1] is reported as greater than 100 µM and the GI50 [2] is reported as 2.9 µM. The TGI [2] was greater than 100 µM, the GI50 [3] was 2.18 µM and the TGI [3] was greater than 100 µM. It also gave a GI50 [4] of 0.546 µM, a TGI [4] greater than 100 µM and a GI50 [5] of 0.992 µM. For the same molecule, the TGI [5] was 10.3 µM, the GI50 [6] was 1.14 µM and the TGI [6] was greater than 100 µM. It also gave a GI50 [7] of 1.62 µM, a TGI [7] greater than 100 µM and a GI50 [8] of 0.719 µM. The TGI [8] was greater than 100 µM, the GI50 [9] was 1.18 µM and the TGI [9] was greater than 35.4 µM. It also gave a GI50 [10] of 3.08 µM, a TGI [10] greater than 100 µM and a GI50 [11] of 3.3 µM. For the same molecule, the TGI [11] was greater than 100 µM, the GI50 [12] was 3.72 µM and the TGI [12] was greater than 100 µM. The GI50 [13] was 1.23 µM, the TGI [13] was greater than 100 µM and the GI50 [14] was 0.913 µM. It also gave a TGI [14] of 5.56 µM, a GI50 [15] of 0.761 µM and a TGI [15] greater than 100 µM. It also gave a GI50 [16] of 1.05 µM, a TGI [16] greater than 31.3 µM and a GI50 [17] of 7.92 µM. The TGI [17] was greater than 100 µM, the GI50 [18] was 12 µM and the TGI [18] was greater than 100 µM. It also gave a GI50 [19] of 6.24 µM, a TGI [19] greater than 100 µM and a GI50 [20] of 0.955 µM. It also gave a TGI [20] greater than 100 µM, a GI50 [21] of 2.37 µM and a TGI [21] greater than 100 µM. For the same molecule, the GI50 [22] was 2.9 µM, the TGI [22] was greater than 100 µM and the GI50 [23] was 0.604 µM. It also gave a TGI [23] greater than 100 µM, a GI50 [24] of 0.752 µM and a TGI [24] greater than 100 µM. For the same molecule, the GI50 [25] was 0.492 µM, the TGI [25] was greater than 100 µM and the GI50 [26] was 4.99 µM. For the same molecule, the TGI [26] was greater than 100 µM, the GI50 [27] was 32.8 µM and the TGI [27] was greater than 100 µM. For the same molecule, the GI50 [28] was 4.11 µM, the TGI [28] was greater than 100 µM and the GI50 [29] was 0.387 µM. The GI50 [30] was 0.566 µM, the TGI [30] was greater than 100 µM and the GI50 [31] was 4.41 µM. It also gave a TGI [31] greater than 100 µM, a GI50 [32] of 0.463 µM and a TGI [32] of 6.28 µM. It also gave a GI50 [33] of 3.39 µM, a TGI [33] greater than 100 µM and a GI50 [34] of 3.25 µM. The TGI [34] was greater than 100 µM, the GI50 [35] was 0.867 µM and the TGI [35] was greater than 100 µM. For the same molecule, the GI50 [36] was 1.47 µM, the TGI [36] was greater than 100 µM and the GI50 [37] was 3.09 µM. For the same molecule, the TGI [37] was greater than 100 µM, the GI50 [38] was 4.15 µM and the TGI [38] was greater than 100 µM. The GI50 [39] was 1.22 µM, the TGI [39] was greater than 100 µM and the GI50 [40] was 1.14 µM. For the same molecule, the TGI [40] was greater than 100 µM, the GI50 [41] was 2.3 µM and the TGI [41] was 14.3 µM. For the same molecule, the GI50 [42] was 0.536 µM, the TGI [42] was greater than 100 µM and the GI50 [43] was 1.83 µM. For the same molecule, the TGI [43] was greater than 100 µM, the GI50 [44] was 8.76 µM and the TGI [44] was greater than 100 µM. It also gave a GI50 [45] of 16.3 µM, a TGI [45] greater than 100 µM and a GI50 [46] of 3.82 µM. For the same molecule, the TGI [46] was greater than 100 µM, the GI50 [47] was 6.81 µM and the TGI [47] was greater than 100 µM. The GI50 [48] was 0.474 µM, the TGI [48] was greater than 100 µM and the GI50 [49] was 3.61 µM. For the same molecule, the TGI [49] was greater than 100 µM, the GI50 [50] was 3.76 µM and the TGI [50] was greater than 100 µM. It also gave a GI50 [51] of 5.61 µM, a TGI [51] greater than 100 µM and a GI50 [52] of 3.25 µM. For the same molecule, the TGI [52] was greater than 100 µM, the GI50 [53] was 0.554 µM and the TGI [53] was greater than 100 µM. The GI50 [54] was 0.443 µM, the TGI [54] was greater than 100 µM and the GI50 [55] was 15.4 µM. For the same molecule, the TGI [55] was greater than 100 µM, the GI50 [56] was 3.68 µM and the TGI [56] was greater than 100 µM. It also gave a GI50 [57] of 5.67 µM, a TGI [57] greater than 100 µM and a GI50 [58] of 1.22 µM. For the same molecule, the TGI [58] was greater than 100 µM.
`COc1ccc(/C=C2/SC(=Nc3c(C)nn(-c4ccccc4)c3N)NC2=O)cc1` was tested, and the GI50 [1] was 3.23 µM, the TGI [1] was 10.5 µM and the GI50 [2] was 6.63 µM. For the same molecule, the TGI [2] was 65.6 µM, the GI50 [3] was 2.74 µM and the TGI [3] was 24 µM. The GI50 [4] was 3.63 µM, the TGI [4] was 18 µM and the GI50 [5] was 2.76 µM. The TGI [5] was 13.2 µM, the GI50 [6] was 5.69 µM and the TGI [6] was 59.5 µM. For the same molecule, the GI50 [7] was 5.29 µM, the TGI [7] was 52.4 µM and the GI50 [8] was 1.27 µM. It also gave a TGI [8] of 3.97 µM, a GI50 [9] of 3.78 µM and a TGI [9] of 18.3 µM. The GI50 [10] was 2.38 µM, the TGI [10] was 10.8 µM and the GI50 [11] was 7.68 µM. It also gave a TGI [11] greater than 100 µM, a GI50 [12] of 13.7 µM and a TGI [12] of 77.9 µM. It also gave a GI50 [13] of 7.12 µM, a TGI [13] of 57.3 µM and a GI50 [14] of 3.88 µM. For the same molecule, the TGI [14] was 15.8 µM, the GI50 [15] was 8.39 µM and the TGI [15] was 55.2 µM. The GI50 [16] was 3.77 µM, the TGI [16] was 22.1 µM and the GI50 [17] was 4.12 µM. It also gave a TGI [17] of 39.9 µM, a GI50 [18] of 2.17 µM and a TGI [18] of 6.57 µM. For the same molecule, the GI50 [19] was 8.21 µM, the TGI [19] was greater than 100 µM and the GI50 [20] was 8.4 µM. For the same molecule, the TGI [20] was greater than 100 µM, the GI50 [21] was 2.6 µM and the TGI [21] was 5.9 µM. The GI50 [22] was 3.64 µM, the TGI [22] was 30.7 µM and the GI50 [23] was 3.73 µM. The TGI [23] was 23.1 µM, the GI50 [24] was 2.14 µM and the TGI [24] was 20.8 µM. For the same molecule, the GI50 [25] was 3.65 µM, the TGI [25] was 25.3 µM and the GI50 [26] was 1.07 µM. For the same molecule, the TGI [26] was 2.79 µM, the GI50 [27] was 4.36 µM and the TGI [27] was 39.4 µM. For the same molecule, the GI50 [28] was 3.43 µM, the TGI [28] was 26.7 µM and the GI50 [29] was 3.84 µM. For the same molecule, the TGI [29] was 19.2 µM, the GI50 [30] was 3.04 µM and the TGI [30] was 10.7 µM. It also gave a GI50 [31] of 3.99 µM, a TGI [31] of 17.2 µM and a GI50 [32] of 3.5 µM. It also gave a TGI [32] of 13.6 µM, a GI50 [33] of 6.87 µM and a TGI [33] of 20.6 µM. It also gave a GI50 [34] of 9.5 µM, a TGI [34] of 69.7 µM and a GI50 [35] of 3.02 µM. The TGI [35] was greater than 100 µM, the GI50 [36] was 3.1 µM and the TGI [36] was 16.4 µM. The GI50 [37] was 14.5 µM, the TGI [37] was 47.8 µM and the GI50 [38] was 5.2 µM. The TGI [38] was 28.8 µM, the GI50 [39] was 11.6 µM and the TGI [39] was 50.5 µM. It also gave a GI50 [40] of 2.9 µM, a TGI [40] of 10.7 µM and a GI50 [41] of 1.4 µM. For the same molecule, the TGI [41] was 14.4 µM, the GI50 [42] was 3.31 µM and the TGI [42] was 13.9 µM. For the same molecule, the GI50 [43] was 3.96 µM, the TGI [43] was 45.3 µM and the GI50 [44] was 4.84 µM. For the same molecule, the TGI [44] was 35.7 µM, the GI50 [45] was 4.18 µM and the TGI [45] was 40 µM. It also gave a GI50 [46] of 4.75 µM, a TGI [46] of 34.7 µM and a GI50 [47] of 4.94 µM. For the same molecule, the TGI [47] was 22.4 µM, the GI50 [48] was 3.8 µM and the TGI [48] was 16.6 µM. The GI50 [49] was 4.35 µM, the TGI [49] was 77.7 µM and the GI50 [50] was 3.9 µM. For the same molecule, the TGI [50] was 22.9 µM, the GI50 [51] was 2.82 µM and the TGI [51] was 15.7 µM. It also gave a GI50 [52] of 2.83 µM, a TGI [52] of 19 µM and a GI50 [53] of 3.3 µM. It also gave a TGI [53] of 12.5 µM, a GI50 [54] of 3.08 µM and a TGI [54] of 31.5 µM. The GI50 [55] was 10.9 µM, the TGI [55] was 63.2 µM and the GI50 [56] was 8.28 µM. It also gave a TGI [56] of 45.3 µM, a GI50 [57] of 6.94 µM and a TGI [57] of 89.4 µM. It also gave a GI50 [58] of 3.72 µM and a TGI [58] of 22.6 µM.
